Laboratory results published in the NIST ThermoML archive (doi:10.1016/j.tca.2008.05.004).

Test: molar heat capacity at constant pressure
Details: 101.33 kPa, Crystal, Small (less than 1 g) adiabatic calorimetry

O=P([O-])([O-])[O-].[La+3] [lanthanum orthophosphate]
Details	molar heat capacity at constant pressure [J/K/mol]
2 K	0.00122
4 K	0.01153
6 K	0.03674
8 K	0.08437
10 K	0.1669
12 K	0.2994
14 K	0.4971
16 K	0.7738
18 K	1.141
20 K	1.605
25 K	3.201
25.03 K	3.418
25.8 K	3.691
26.57 K	3.997
27.34 K	4.269
28.12 K	4.62
28.89 K	4.94
29.68 K	5.294
30 K	5.306
30.46 K	5.695
31.24 K	6.098
32.03 K	6.511
32.86 K	6.925
33.65 K	7.346
34.44 K	7.659
35 K	7.89
35.24 K	8.049
36.04 K	8.576
36.84 K	9.023
37.64 K	9.523
38.44 K	9.994
39.25 K	10.48
40 K	10.82
40.05 K	10.95
40.86 K	11.44
41.67 K	11.92
42.48 K	12.4
43.29 K	12.88
44.1 K	13.34
44.92 K	13.87
45 K	13.97
45.76 K	14.39
48.2 K	16.03
49.02 K	16.52
49.84 K	17.11
50 K	17.23
50.65 K	17.64
51.47 K	18.19
52.29 K	18.72
53.11 K	19.27
53.93 K	19.79
54.75 K	20.27
55.57 K	20.78
56.4 K	21.36
57.22 K	21.86
58.04 K	22.41
58.89 K	22.97
59.72 K	23.49
60 K	23.73
60.54 K	24.01
61.37 K	24.55
62.2 K	25.1
63.03 K	25.6
63.86 K	26.14
64.69 K	26.66
65.52 K	27.24
66.35 K	27.76
67.19 K	28.22
68.02 K	28.62
68.86 K	29.07
69.7 K	29.48
70 K	29.93
70.93 K	30.26
72.58 K	31.21
73.58 K	31.56
74.82 K	32.17
76.07 K	33.31
77.32 K	33.78
78.55 K	34.74
80 K	35.68
80.58 K	36.06
82.23 K	36.9
83.88 K	37.58
85.53 K	38.39
87.18 K	39.57
88.83 K	40.58
90 K	40.96
90.48 K	41.33
92.13 K	42.17
93.78 K	42.97
95.43 K	43.79
97.08 K	44.53
100 K	45.82
101.86 K	46.91
102.42 K	47.17
104.27 K	47.95
104.88 K	48.25
106.71 K	49.05
107.34 K	49.42
109.16 K	50.14
109.8 K	50.46
110 K	50.3
111.6 K	51.16
112.25 K	51.55
114.04 K	52.08
114.7 K	52.52
116.47 K	53.12
117.16 K	53.55
119.61 K	54.49
120 K	54.48
122.06 K	55.51
124.51 K	56.3
126.96 K	57.27
